The source of these data is patent US5886142A, “Radiolabeled thrombus imaging agents” (Thomas Jefferson University, priority 1997, dated 1999).

In one series the test system is activated platelets. Description: Binding of Tc-99m labeled peptide to activated platelets. Set-up: species or system human. The note with it: 6 i.u. thrombin, 22° C., 15 minutes. Here is the method:
The labeled cyclized peptide was then assayed for its ability to bind to resting and activated platelets. The platelets used in this assay were obtained from healthy human volunteers. Platelets (0.5 ml; 0.7×10^9 platelets), which were stored in a salt balanced medium for up to four days and 20 μl of the technetium labeled cyclized peptide (approximately 1.9×10^-3 mg) were dispensed into each of six test tubes. To activate the platelets, 6 i.u. of thrombin was added to three of the tubes and gently mixed until a visible clot was formed. The remaining three tubes (absent thrombin) served as controls, i.e., resting platelets. The tubes were held at 22° C. for 15 minutes and then centrifuged at 2000 g for 10 minutes. The supernatant was separated and the platelets washed with 0.9% NaCl and centrifuged again at 2000 g for 10 minutes. Radioactivity in the supernatant and washings combined, and that associated with the platelet samples, was counted and the percentage of radiolabeled platelets in each tube was determined. […]
A thrombus imaging agent, i.e., the composition of SEQ ID NO: 7 labeled with Tc-99m, was assayed for its ability to bind to resting and activated platelets. […] Radioactivity in the supernatant and washings combined, and that associated with the platelet samples, was counted and the percentage of radiolabeled platelets in each tube was determined.

Details of series [1]: species or system New Zealand white rabbit. The note with it: rabbit, in vivo, iv. The protocol: Alternatively, the stability of the thrombus imaging agent was determined by comparing an HPLC elution plot of the radiolabeled composition (SEQ ID NO: 7) and of the radioactivity excreted in the urine of the rabbit given the thrombus imaging agent four hours previously. For the in vivo analysis, a preparation containing the radiolabeled composition (SEQ ID NO: 7) was injected intravenously into a New Zealand white rabbit. Urine was collected from the rabbit at four hours post-injection and a 20 μl portion of which was analyzed by HPLC as described above. The animal had not voided prior to collection of this sample.

Another series concerns pre-formed clots. Nature of the series: Binding to pre-formed human blood clots in vitro. To be noted: thrombin 15 minutes prior to addition of the agent. Here is the method:
(§1) In several 1 ml syringes, approximately 0.7 ml of blood was drawn, without any anti-coagulant, from a healthy human volunteer. In four of the syringes, approximately 2 μCi of the thrombus imaging agent was added and mixed, and followed by the addition of 15 i.u. units of thrombin and mixed again. Clots were allowed to form for 15 minutes at 22° C. The fluid was expelled and reserved, and the clots were washed with 0.9% NaCl. The wash was combined with the reserved expelled fluid. The clots, still in the syringe, were placed over a gamma camera (GE 300 STARCAM) and imaged for a combined total count of 35,000. The forming clots were expelled from the syringes, collected in four separate test tubes, and placed in a gamma counter (Packard 5000 series) together with the previously reserved expelled liquid for each respective sample. The percentage of radioactivity associated with each clot was determined.
In the four remaining test tubes, thrombin was added and allowed to incubate for 15 minutes, prior to the addition of the thrombus imaging agent. The pre-formed clots were treated as described above and measured for radioactivity

The test system of series [2] is thrombus in femoral artery. Description: Gamma camera imaging of experimental arterial thrombus in vivo. Set-up: species or system New Zealand white albino rabbit. The note with it: rabbit, intravenous, gamma camera image 15 minutes after administration (FIG. 6). The source says: An experimental clot was induced in a femoral artery of a rabbit and imaged by scintigraphy.
A New Zealand white albino rabbit (3.5 kg) was anesthetized with a mixture of ketamine/zylaxine and placed in the supine position on an x-ray table. The animal was not heparinized. A small incision was made in the neck to expose the right carotid artery; a catheter inserted and with the assistance of a guidewire and a fluoroscope, the catheter was advanced in the left femoral artery. […] The puncture was confirmed when contrast agent was injected. A 3 mm×2 cm thrombogenic coil (Cooks Inc., Bloomington, Ind.) was placed in the catheter, and with the help of the guidewire was lodged in the left femoral artery above the hip joint, near the bladder (FIG. 5B).
Approximately 25 minutes after the insertion of the catheter and coil, 2.4 μCi (10 μg) of the thrombus imaging agent was injected intravenously into the animal and serial gamma camera images were obtained.

The next series concerns forming clots. Description: Binding to forming human blood clots in vitro. The protocol:
as §1, with “Clots were allowed to form for 15 minutes at 22° C.” left out
Images of these (broken) clots are shown in FIG. 4C, in which 51±1.2% of the added radiolabel was taken up. The increasing uptake of the thrombus imaging agent over a prolonged period of time in a forming clot in vitro is analogous to the situation in patients in whom clots continue to form slowly for a long period of time.

A short description of series [3]: In vitro stability of the thrombus imaging agent by periodic HPLC. The note with it: up to 18 hours after preparation. The series is classed as physicochemical. Here is the method:
The purity of the product was examined by HPLC (Rainin, Emeryville, Calif.) using a reverse phase C-18 column and gradient solvents of 0.1% TFA in water (solvent A) and 0.1% TFA in acetonitrile (solvent B). The gradient was such that at zero minutes, solvent A was 30%, reaching to […] 100% in 30 minutes. The flow rate was 1 ml/minute. The HPLC was equipped with a u.v. detector set at 278 nm, a 2" NaI (Tl) gamma counter and a rate meter. The radiolabeled composition (SEQ ID NO: 7), the thrombus imaging agent, was eluted at retention time 9.3 minutes, and the unbounded technetium at 3.7 minutes.
The in vitro stability of the thrombus imaging agent was examined for up to 18 hours after preparation.

The next series relates to resting platelets. Description: Binding of thrombus imaging agent to resting platelets. Set-up: species or system human. To be noted: absent thrombin, 22° C., 15 minutes. The protocol:
A thrombus imaging agent, i.e., the composition of SEQ ID NO: 7 labeled with Tc-99m, was assayed for its ability to bind to resting and activated platelets. Again, the platelets used in this assay were obtained from healthy volunteers. Platelets (0.5 ml; 0.7×10^9 platelets), which were stored for up to four days and 20 μl of the thrombus imaging agent (~1.9×10^-3 μg) were dispensed into each of six test tubes. To activate the platelets, 6 i.u. of thrombin was added to three of the tubes and gently mixed until a visible clot was formed. The remaining three tubes (absent thrombin) served as controls (i.e., resting platelets). The tubes were held at 22° C. for 15 minutes and then centrifuged at 2000 g for 10 minutes. The supernatant was separated and the platelets washed with 0.9% NaCl and centrifuged again at 2000 g for 10 minutes. Radioactivity in the supernatant and washings combined, and that associated with the platelet samples, was counted and the percentage of radiolabeled platelets in each tube was determined.

The next series relates to four tumor cell lines. The note with it: cited from earlier work.
The test system of the next series is platelets. The note with it: cited from earlier work.
For series [4], the system named is CD36 transfected Jurkat cells. The note with it: radioiodinated (I-125); cited from earlier work.
For a further series, the system named is MDA-231 cells. Description: Cell adhesion assay (method of Tuszynski et al.). To be noted: not radiolabeled; peptide dried in microtiter wells, one hour incubation. The series is classed as cell-based. Here is the method: Using the method of Tuszynski et al. J. Cell Biol. 1992, 116, 209-221, the hexapeptide Cys Ser Val Thr Cys Gly (SEQ ID NO: 4) and fibrinectin were used as controls, and the composition of SEQ ID NO: 7, as a test peptide. None of the peptides or fibrinectin were radiolabeled. Fifty μl of a […] saline solution of the peptide or protein was air dried overnight in wells of a microtiter plate. After drying, the wells were blocked with 50 μl of BSA for 30 minutes and washed with Hepes-bufferedsaline. The wells were incubated for one hour with a titer of 3.3×10^4 MDA-231 cells in 100 μl of Hepes-buffered saline containing 5 mM glucose, 1 mM MgCl2 and 1 mM CaCl2. The wells were washed once with PBS and adherent cells were fixed with 3% glutaraldehyde and stained with Giemsa overnight. The total number of adherent cells were counted under light microscopy.

Positions of bridges follow the written chain, without caps; N, C: chain ends. Non-standard residues stand in square brackets, D forms with d. No end group written: not given here. *: point of attachment. GABA = NCCCC(=O)O; Acm = CC(=O)NC*

Turning to “thrombus imaging agent: the composition of SEQ ID NO: 7 labeled with Tc-99m (G[dA]GG[GABA]YC(Acm)SVTC(Acm)G; also: Tc-99m label)”, the “added radiolabel bound to activated platelets” value with activated platelets came to 12.5±1.2%. For the same substance, the “quantity of free Tc-99m in urine versus the injected preparation” value in [1] is “substantially the same”. Further, the “radioactivity level measured in the preformed clots” value with pre-formed clots stood at 6.4±3.2%. For the same substance, the “uptake of radioactivity at the site of the punctured artery (clot)” value in series [2] is “intense uptake of radioactivity”. For the same substance, the “gamma camera images, radioactivity in forming versus preformed clots” value in the series on forming clots (FIGS. 4A and 4B, qualitative) is recorded as “more radioactivity in the forming clots than in the preformed clots”. For the same substance, the “radioactivity level measured in the forming clot” value with forming clots (agent added before thrombin, 15 minutes at 22° C.) is listed as 27.6±0.2%. For the same substance, the “added radiolabel taken up by forming clots” value in the series on forming clots (incubated for 2 hours at 22° C.) is given as 51±1.2%. For the same substance, the “quantity of free Tc-99m versus time of preparation” value in [3] is “had not increased”. Also, the “added radiolabel bound to resting platelets” value with resting platelets worked out at 2.1±0.5%.

As to “labeled cyclized peptide: cyclized peptide Cys Ser Val Thr Cys Gly (SEQ ID NO: 4) directly labeled with Tc-99m at sulfhydryl moieties (CSVTCG; also: cyclized, kind not given here, directly labeled with Tc-99m at sulfhydryl moieties)”, the “added radiolabel bound to activated platelets” value with activated platelets is recorded as under 2%.

As to “cyclic form: cyclic form of SEQ ID NO: 4 in which two cysteine residues are cyclized (CSVTCG; disulfide 1-5 (inferred))”, the “binding to four tumor cell lines relative to the native sequence” value in the series with four tumor cell lines is given as “approximately to the same extent as the native sequence”. Further, in the series with platelets, the “effect on ADP-induced platelet aggregation” value (“effect” for short) is “inhibited ADP-induced platelet aggregation”.

Consider “cysteine protected form: derivative of SEQ ID NO: 4 in which the two cysteine residues are blocked by acetaminomethyl (Acm) (C(Acm)SVTC(Acm)G)”, for which the “binding to four tumor cell lines relative to the native sequence” value in the series with four tumor cell lines is listed as “approximately to the same extent as the native sequence”. Moreover, the “effect” value in the series on platelets was “inhibited ADP-induced platelet aggregation”.

In the case of “YCSVTCG (cysteine pairing not given here) [SEQ ID NO: 3]”, the “binding to CD36 transfected Jurkat cells” value in series [4] was “binds strongly”.

In the case of “Gly (D)Ala Gly Gly Aba Tyr Cys(Acm) Ser Val Thr Cys(Acm) Gly (G[dA]GG[GABA]YC(Acm)SVTC(Acm)G) [SEQ ID NO: 7]”, in the series on MDA-231 cells, the “lower cell adhesion as compared to fibronectin” value was “approximately 17%” and the “proportion of cells demonstrating cell adhesion, test peptide versus hexapeptide (SEQ ID NO: 4)” value is listed as “No statistical difference”.

In the case of “VCTGSC (cysteine pairing not given here) [SEQ ID NO: 6]”, in the series with platelets, the “effect” value was “no biological activity”.

In the case of ANKHYF [SEQ ID NO: 5], the “effect” value in the series on platelets is listed as “no biological activity”.
